In US20240252454A1, “COMPOSITION COMPRISING AN INHIBITOR OF MITOCHONDRIAL TRANSCRIPTION” (LEAD DISCOVERY CENTER GMBH, priority 2021, published 2024):

Experiments:
Format in all cases: cell-based
A2780 [1] = test: CellTiter-GLO (CTG) assay, combinatorial matrix; conditions: for Measured residual activity (cellular ATP content): A2780, 72 hours, untreated control =100%
Procedure: (§1) To determine the in vitro cellular viability, cellular ATP concentrations were measured using a luminescence-based homogenous assay format, as described here. […] Optimal cell density for each cell line was determined to guarantee linearity. For viability assays with compounds, cells were then seeded at a density of 200 to 1000 per well in 25 μl in 384-well plates (Greiner Bio-One, Frickenhausen, Germany). After overnight incubation at 37° C./5% CO2, 25 nl or 75 nl compounds were added to each sample well by using BIOMEK FXP Laboratory Automation Workstation (Beckman Coulter, USA). Wells with cells and 0.1% or 0.3% DMSO in culture medium were used as positive controls, wells with cells and 10 μM staurosporine (Selleck Chemicals, Huston, USA) in culture medium were used as negative controls. Upon incubation with compounds for 72 h at 37° C./5% CO2 25 μl Cell Titer Glo reagent (Promega, Madison, USA, European Pat. No. 1131441, U.S. Pat. Nos. 7,083,911, 7,452,663 and 7,732,128) 1:2 diluted with cell culture medium) was added to each well to determine cell viability. 384well-plates were placed for 2 min on an orbital microplate shaker and incubated for further 10 min at room temperature resulting in a stabilization of light signal. Luminescence was measured by Envision Plate Reader (Perkin Elmer, USA).
(§2) All in vitro cell culture experiments were carried out under near physiological glucose concentrations (5 mM) in at least two independent replicates.

HEC59 [2] = test: CellTiter-GLO (CTG) assay, combinatorial matrix; conditions: HEC59, 72 hours, BAY-876 0 (IMT alone), IMT at the μM of c0, untreated control =100%
Procedure: as §1, §2
(§3) To establish the method described, N,N-dimethyl-2-[4-(o-tolyl)-2-oxo-chromen-7-yl]oxy-propanamide, (3S)-1-[2-[4-(2-chloro-4-fluoro-phenyl)-2-oxo-chromen-7-yl]oxypropanoyl]piperidine-3-carboxylic acid, (3S)-1-[(2R)-2-[4-(2-chloro-4-fluoro-phenyl)-2-oxo-chromen-7-yl]oxypropanoyl]piperidine-3-carboxylic acid and BAY-876 were first examined with regard to their effect on the cell growth of twelve different tumour cell lines and the IC50 values were determined. This initial study was followed by validation experiments in a matrix format and in the CTG assay, as described under Example 1), in two tumour cell lines from uterine and ovarian carcinoma (HEC59 and A2780), as well as in primary human blood cells (PBMC) (Table 7).
(§4) Combinations of one concentration of IMT (μM; y-axis) and 30 μM-33 nM BAY-876 (x-axis) were incubated for 72 hours with HEC59, hPBMCs or A2780 and then the cellular ATP-content was determined using the CellTiter-GLO assay format. A: Measured residual activity (%) based on an untreated control group (=100%). B: The combinatorial indices are provided, based on the reference groups treated with the corresponding concentration of only one inhibitor class, according to Berenbaum and Cou & Talalay. <1=synergism, 1-2=additivity, 2>=antagonism.

[3] = test system: primary human blood cells (PBMC); test: CellTiter-GLO (CTG) assay, combinatorial matrix; conditions: hPBMCs, 72 hours, BAY-876 0 (IMT alone), IMT at the μM of c0, untreated control =100%
Procedure: as §1, §2, §3, §4

A2780 [4] = test: SRB assay, IMT combined with inhibitor; conditions: A2780; dilution series of the IMT + MEK inhibitor Selumetinib (AZD6244) at constant 1 μM or 31 nM; compared to untreated or MEK inhibitor only (FIG. 1)
Procedure: In two studies, the ovarian cell line A2780 was tested for 72 hours with the IMT N,N-dimethyl-2-[4-(o-tolyl)-2-oxo-chromen-7-yl]oxy-propanamide (30 μM-15 nM) and the MEK inhibitor Selumetinib (30 μM-10 nM), or with the IMT 1-[2-[4-(2-chlorophenyl)-2-oxo-chromen-7-yl]oxypropanoyl]piperidine-3-sulfonamide (30 μM-15 nM) and the MEK inhibitor PD318088 (30 μM-10 nM).
Solforhodamine B assay is carried out as described in Voigt W. (2005) Sulforhodamine B Assay and Chemosensitivity. (Methods in Molecular Medicine™, vol 110. Humana Press. https://doi.org/10.1385/1-59259-869-2:039).
The determination of changes in cellular biomass was based on the Solforhodamine B assay format, carried out as described in Voigt W. (2005) Sulforhodamine B Assay and Chemosensitivity. (Methods in Molecular Medicine™, vol 110. Humana Press. https://doi.org/10.1385/1-59259-869-2:039).
as §2
First, 30 different cell lines from 14 different tissue types were tested in the SRB assay format. The cells were examined individually for changes in growth over a period of 120 hours with dilution series of both inhibitors. Untreated cells were used as a negative control group. Subsequently, a dilution series of the respective MAPK signalling pathway SOCs was treated in combination with a fixed concentration of 40 nM (3S)-1-[(2R)-2-[4-(2-chloro-4-fluoro-phenyl)-2-oxo-chromen-7-yl]oxypropanoyl]piperidine-3-carboxylic acid.

HEC59 [5] = test: CellTiter-GLO (CTG) assay, combinatorial matrix; conditions: 30 μM to 15 nM IMT + 30 μM to 40 nM BAY-876

Structure (SMILES): C[C@@H](Oc1ccc2c(-c3ccc(F)cc3Cl)cc(=O)oc2c1)C(=O)N1CCC[C@H](C(=O)O)C1 [IMT]
- Measured residual activity (cellular ATP content) (A2780 [1]; BAY-876 0 (IMT alone), IMT at the μM of c0, IMT 0.12 µM): 35%
- Measured residual activity (cellular ATP content) (A2780 [1]; BAY-876 0 (IMT alone), IMT at the μM of c0, IMT 0.47 µM): 32%
- Measured residual activity (cellular ATP content) (A2780 [1]; BAY-876 0 (IMT alone), IMT at the μM of c0, IMT 1.88 µM): 29%
- Measured residual activity (cellular ATP content) (A2780 [1]; Olaparib 0 (IMT alone), IMT (3S)-1-[(2R)-2-[4-(2-chloro-4-fluoro-phenyl)-2-oxo-chromen-7-yl]oxypropanoyl]piperidine-3-carboxylic acid at the μM of c0): 30%
- Measured residual activity (cellular ATP content) (A2780 [1]; Rucaparib 0 (IMT alone), IMT (3S)-1-[(2R)-2-[4-(2-chloro-4-fluoro-phenyl)-2-oxo-chromen-7-yl]oxypropanoyl]piperidine-3-carboxylic acid at the μM of c0): 25%
- Measured residual activity (cellular ATP content) (A2780 [1]; Veliparib 0 (IMT alone), IMT (3S)-1-[(2R)-2-[4-(2-chloro-4-fluoro-phenyl)-2-oxo-chromen-7-yl]oxypropanoyl]piperidine-3-carboxylic acid at the μM of c0, IMT 0.2 µM): 29%
- Measured residual activity (cellular ATP content) (A2780 [1]; Veliparib 0 (IMT alone), IMT (3S)-1-[(2R)-2-[4-(2-chloro-4-fluoro-phenyl)-2-oxo-chromen-7-yl]oxypropanoyl]piperidine-3-carboxylic acid at the μM of c0, IMT 7.5 µM): 31%
- Measured residual activity (cellular ATP content) (HEC59 [2]; IMT 0.005 µM): 99%
- Measured residual activity (cellular ATP content) (HEC59 [2]; IMT 1.25 µM): 39%
- Measured residual activity (cellular ATP content) ([3]; IMT 0.059 µM): 98%
- Measured residual activity (cellular ATP content) ([3]; IMT 0.234 µM): 94%

Structure (SMILES): CC(Oc1ccc2c(-c3ccc(F)cc3Cl)cc(=O)oc2c1)C(=O)N1CCC[C@H](C(=O)O)C1 (stereo partly drawn) [(3S)-1-[2-[4-(2-chloro-4-fluoro-phenyl)-2-oxo-chromen-7-yl]oxypropanoyl]piperidine-3-carboxylic acid]
- growth kinetics in the SRB assay format (A2780 [4]): advantage of the combination treatment
- combination of IMT and GLUTi compared to treatment with only the GLUTi BAY-876 alone (A2780 [1]; A2780, CTG matrix, 30 μM to 15 nM IMT + 30 μM to 40 nM BAY-876): advantage of the combination
- combination of IMT and GLUTi compared to treatment with only the GLUTi BAY-876 alone (HEC59 [5]): advantage of the combination
